{
  "source": "paper PMC7948648",
  "about": "(The Journal of Biological Chemistry, 2021)",
  "molecules": {"B1": {"name": "tankyrase1 (TNKS1) ART domain (residues 1104-1314) (domain or fragment, UniProt O95271 1104-1314, looked up)", "chain": "QGTILLDLAPEDKEYQSVEEEMQSTIREHRDGGNAGGIFNRYNVIRIQKVVNKKLRERFCHRQKEVSEENHNHHNERMLFHGSPFINAIIHKGFDERHAYIGGMFGAGIYFAENSSKSNQYVYGIGGGTGCPTHKDRSCYICHRQMLFCRVTLGKSFLQFSTMKMAHAPPGHHSVIGRPSVNGLAYAEYVIYRGEQAYPEYLITYQIMKPE", "notes": "tankyrase1 (TNKS1, PARP5a), ART domain, residues 1104-1314; also called PARP5a; not shown: His6, N-terminal, cleaved"}},
  "key": {"PARP1": {"tested_on": "T1, PARP1", "T1 construct": "To assess if these observations extend to endogenous cellular settings; endogenous in cells; host or cells: NCI-H1048 cell lysate", "parameters": "method as in PMID 28001384", "details": "selectivity PARP1 over TNKS1; cited from earlier work"}, "[1]": {"details": "clinical dose of 1 mg once a day; cited from earlier work"}, "TNKS1": {"tested_on": "TNKS1", "assay": "Biotin probe competition pulldown in NCI-H1048 cell lysate, Western blot for TNKS1", "details": "talazoparib versus olaparib, 30 min pretreatment, biotin probes", "protocol": "Proteins bound to streptavidin were released and subjected to Western blot analysis for either PARP1 (top) or TNKS1 (bottom).\nLysate was then spun at 1500 rpm for 3 min, and the soluble fraction was transferred to a new tube on ice.\nConjugated beads were washed three times with wash buffer (50 mM Hepes [Fisher Scientific AAJ60712AK], 150 mM NaCl [Invitrogen, AM9759], and 1% nonyl phenoxypolyethoxylethanol [Fisher Scientific NC9168253]) rotating for 3 min. All PARP inhibitor pulldowns were from 1 mg/ml of protein lysate."}, "[2]": {"molecular_target": "the molecule itself", "assay": "crystal structure; TNKS1 ART domain, apo and with talazoparib, olaparib, niraparib or veliparib; sitting-drop vapor diffusion at 4 °C; several crystal forms with multiple molecules in the asymmetric unit"}},
  "data": [
    {"molecule": "CN(C)CC(=O)Nc1ccc2[nH]c(=O)c3ccccc3c2c1", "note": "[PJ34]", "values": [
      {"measurement": "fold lower IC50 for PARP1 than for TNKS1", "setting": "PARP1", "result": "over 25 fold"}
    ]},
    {"molecule": "Cn1ncnc1[C@H]1c2n[nH]c(=O)c3cc(F)cc(c23)N[C@@H]1c1ccc(F)cc1", "note": "[Talazoparib, talazoparib]", "values": [
      {"measurement": "free plasma concentration", "setting": "[1]", "result": "~17", "unit": "nM"},
      {"measurement": "greater ability to prevent binding to TNKS1", "setting": "TNKS1", "result": "approximately 1000 fold"}
    ]},
    {"molecule": "B1", "values": [
      {"measurement": "binding result", "setting": "[2]", "result": "binds"}
    ]}
  ]
}
